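The compound was tested at five concentrations on cells cultured in 96-well plates, with a 48-hour exposure period. The concentration for 50% growth inhibition is given as GI50. TGI: total growth inhibition.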
Legend:
Assay in all cases: inhibition of tumour cell growth, NCI panel, 48 h
[1] = system: SW-620 colon
[2] = system: RPMI-8226 leukemia
[3] = system: CCRF-CEM leukemia
[4] = system: A498 renal
[5] = system: COLO 205 colon
[6] = system: SK-MEL-5 melanoma
[7] = system: HOP-92 NSCLC
[8] = system: T-47D breast
[9] = system: ACHN renal
[10] = system: DU-145 prostate
[11] = system: SK-MEL-28 melanoma
[12] = system: SNB-75 CNS
[13] = system: PC-3 prostate
[14] = system: UO-31 renal
[15] = system: SK-MEL-2 melanoma
[16] = system: A549 NSCLC
[17] = system: HCT-15 colon
[18] = system: SF-539 CNS
[19] = system: MALME-3M melanoma
[20] = system: UACC-257 melanoma
[21] = system: HS 578T breast
[22] = system: HL-60(TB) leukemia
[23] = system: OVCAR-5 ovarian
[24] = system: HOP-62 NSCLC
[25] = system: M14 melanoma
[26] = system: NCI-H226 lung
[27] = system: HT29 colon
[28] = system: OVCAR-8 ovarian
[29] = system: NCI-H522 lung
[30] = system: MCF7 breast
[31] = system: HCC-2998 colon
[32] = system: BT-549 breast
[33] = system: SF-268 CNS
[34] = system: TK-10 renal
[35] = system: SR leukemia
[36] = system: NCI/ADR-RES ovarian
[37] = system: HCT-116 colon
[38] = system: OVCAR-3 ovarian
[39] = system: IGROV1 ovarian
[40] = system: NCI-H460 lung
[41] = system: SF-295 CNS
[42] = system: OVCAR-4 ovarian
[43] = system: SK-OV-3 ovarian
[44] = system: UACC-62 melanoma
[45] = system: MDA-MB-231 breast
[46] = system: 786-0 renal
[47] = system: KM12 colon
[48] = system: NCI-H23 lung
[49] = system: LOX IMVI melanoma
[50] = system: MDA-MB-435
[51] = system: K-562 leukemia
[52] = system: U251 CNS
[53] = system: SN12C renal
[54] = system: SNB-19 CNS
[55] = system: MOLT-4 leukemia
[56] = system: RXF 393 renal
[57] = system: EKVX NSCLC

`C=CC[n+]1c(/C=C/C=C2\N(C)c3ccccc3C2(C)C)sc2ccc(OC)cc21` was tested, and the GI50 [1] was 0.34 µM, the TGI [1] was 14.3 µM and the GI50 [2] was 0.0692 µM. The TGI [2] was 0.705 µM, the GI50 [3] was 0.287 µM and the TGI [3] was 12.7 µM. For the same compound, the GI50 [4] was 0.278 µM, the TGI [4] was 4.37 µM and the GI50 [5] was 0.188 µM. For the same compound, the TGI [5] was 0.591 µM, the GI50 [6] was 0.0615 µM and the TGI [6] was 0.239 µM. The GI50 [7] was 0.201 µM, the TGI [7] was 1.61 µM and the GI50 [8] was 0.0231 µM. It also gave a TGI [8] of 0.561 µM, a GI50 [9] of 1.65 µM and a TGI [9] of 10.9 µM. The GI50 [10] was 0.34 µM, the TGI [10] was 15.6 µM and the GI50 [11] was 0.464 µM. For the same compound, the TGI [11] was 4.79 µM, the GI50 [12] was 0.283 µM and the TGI [12] was 14.1 µM. It also gave a GI50 [13] of 0.215 µM, a TGI [13] of 12.2 µM and a GI50 [14] of 1.53 µM. For the same compound, the TGI [14] was 8.82 µM, the GI50 [15] was 0.27 µM and the TGI [15] was 5.22 µM. The GI50 [16] was 0.279 µM, the TGI [16] was 16.1 µM and the GI50 [17] was 2.82 µM. The TGI [17] was 16.4 µM, the GI50 [18] was 0.329 µM and the TGI [18] was 13.9 µM. It also gave a GI50 [19] of 0.188 µM, a TGI [19] of 0.733 µM and a GI50 [20] of 0.197 µM. The TGI [20] was 0.733 µM, the GI50 [21] was 0.465 µM and the TGI [21] was 25.4 µM. It also gave a GI50 [22] of 0.156 µM, a TGI [22] of 0.732 µM and a GI50 [23] of 0.504 µM. It also gave a TGI [23] of 14.9 µM, a GI50 [24] of 0.291 µM and a TGI [24] of 11.9 µM. The GI50 [25] was 0.331 µM, the TGI [25] was 2.59 µM and the GI50 [26] was 0.282 µM. The TGI [26] was 13 µM, the GI50 [27] was 0.272 µM and the TGI [27] was 6.05 µM. The GI50 [28] was 0.327 µM, the TGI [28] was 33.8 µM and the GI50 [29] was 0.133 µM. The TGI [29] was 2.6 µM, the GI50 [30] was 0.157 µM and the TGI [30] was 11.4 µM. The GI50 [31] was 0.258 µM, the TGI [31] was 21.3 µM and the GI50 [32] was 0.149 µM. The TGI [32] was 2.99 µM, the GI50 [33] was 0.321 µM and the TGI [33] was 19.6 µM. The GI50 [34] was 0.235 µM, the TGI [34] was 14.8 µM and the GI50 [35] was 0.101 µM. For the same compound, the TGI [35] was 7.12 µM, the GI50 [36] was 7.76 µM and the TGI [36] was 69.2 µM. The GI50 [37] was 0.159 µM, the TGI [37] was 11.9 µM and the GI50 [38] was 0.176 µM. For the same compound, the TGI [38] was 22.2 µM, the GI50 [39] was 0.521 µM and the TGI [39] was 21.6 µM. It also gave a GI50 [40] of 0.199 µM, a TGI [40] of 12.1 µM and a GI50 [41] of 0.18 µM. It also gave a TGI [41] of 3 µM, a GI50 [42] of 0.114 µM and a TGI [42] of 28.5 µM. For the same compound, the GI50 [43] was 0.21 µM, the TGI [43] was 0.769 µM and the GI50 [44] was 0.195 µM. It also gave a TGI [44] of 2.65 µM, a GI50 [45] of 0.272 µM and a TGI [45] of 1.65 µM. For the same compound, the GI50 [46] was 0.363 µM, the TGI [46] was 18.8 µM and the GI50 [47] was 0.249 µM. It also gave a TGI [47] of 11.7 µM, a GI50 [48] of 0.0761 µM and a TGI [48] of 12.9 µM. It also gave a GI50 [49] of 0.313 µM, a TGI [49] of 15.1 µM and a GI50 [50] of 0.256 µM. It also gave a TGI [50] of 10.6 µM, a GI50 [51] of 0.165 µM and a TGI [51] of 12.8 µM. For the same compound, the GI50 [52] was 0.293 µM, the TGI [52] was 14.4 µM and the GI50 [53] was 0.283 µM. It also gave a TGI [53] of 11.8 µM, a GI50 [54] of 0.289 µM and a TGI [54] of 14.4 µM. The GI50 [55] was 0.309 µM, the TGI [55] was 5.73 µM and the GI50 [56] was 0.431 µM. For the same compound, the TGI [56] was 13.7 µM, the GI50 [57] was 0.264 µM and the TGI [57] was 15.5 µM.

Reference: PubChem BioAssay (NCI)
